Results published in patent publication US7629376B2, “3-substituted-5- and 6-aminoalkyl indole-2-carboxylic acid amides and related analogs as inhibitors of casein kinase I” (Aventis Pharmaceuticals Inc., priority 2004, dated 2009).

The compounds below were run against T1, casein kinase 1ε (Homo sapiens, UniProt P49674) (assay: Casein Kinase Epsilon 33P-ATP Filter Plate Assay for Screening CK1ε Inhibitors).
T1 construct: made in house
Type: biochemical
Method: Casein Kinase Epsilon ^33P-ATP Filter Plate Assay for Screening CK1ε Inhibitors
Purpose: This assay measures the ability of compounds to inhibit the phosphorylation of the substrate casein by the enzyme casein kinase 1ε using an in vitro ^33P-ATP filtration assay.
The above are stored as 100 μL aliquots at minus 80° C. • Compounds: • Supply compounds for testing as frozen 10 mM compound stock dissolved in 100% DMSO. Assay Conditions: • Final total assay volume per well is equal to 50 μL that one prepares as follows: • 5 μL of diluted compound stock (10, 1, 0.1, 0.01 or 0.001 μM), • 5 μL of dephosphorylated casein final concentration 0.2 μg/μL, • 20 μL of CK1ε final concentration 3 ng/μL, and • 20 μL of γ-^33P-ATP final concentration 0.02 μCi/μL mixed with cold ATP (10 μM final). Methodology: • 1. Prepare 500 mL of fresh assay buffer: 50 mM Tris pH 7.5, 10 nm MgCl2, 2 mM DTT and 1 mM EGTA • 2. Obtain compounds to be evaluated as 10 μL of 10 mM stock dissolved in 100% DMSO. Use a Biomek 2000 liquid handling robot, make serial dilutions to yield 10, 1, 0.1, 0.01 and 0.001 μM final compound dilutions added as 5 μL additions to Falcon U bottom plates. […] A routine screening assay will consist of 32 compounds, which equals 4 assay plates. • 3.
• 4. Add 5 μL of compound as indicated, then add 5 μL of dephosphorylated casein (dissolved in distilled H20) (0.2 μg/μL) and 20 μL CK1ε (3 ng/μL) to the appropriate wells. • 5. Finally add 20 μL γ-^33P-ATP (0.02 μCi/μL)/10 μM cold ATP (equals approximately 2×10^6 CPM per well). • 6. Vortes the Falcon U-Bottom assay plate containing the above 50 μL reaction volume and then incubate at room temperature for 2 hours. • 7. At the end of 2 hours, stop the reaction by the addition of 65 μL of ice cold 2 mM cold ATP (made up in assay buffer) to the assay plates using a Beckman Multimek. • 8. At the same time add 25 μL 100% ice cold TCA made up in distilled H20 to a matching number of Millipore MAPH filter plates. • 9. Using a handheld 8-channel pipettor, transfer 100 μL of the reaction mixture from the Falcon U-Bottom Plate to the Millipore MAPH filter plates presoaked with TCA. • 10. Mix the Millipore MAPH filter plates gently and allow to sit at room temperature for at least 30 minutes to precipitate the proteins. • 11. After 30 minutes, place the filter plates on a Millipore vacuum manifold and filter at no more than 8 mm Hg as the MAPH filters tend to “air lock” at higher vacuum settings. • 12. […] Allow the plates to dry overnight at room temperature. The next day add 40 μL Packard Microscint-20 Scintillation Fluid per well using a Titertek Multidrop dispenser; seal the plates and count for 2 minutes/well in a Packard Topcount NXT Scintillation Counter (to provide CPM values/well). Calculation: • 1. Import Counts Per Minute (CPM) data into a proprietary data calculation and archiving database (Activity Base by IDBS version 5.0). • 2. Column 1 for each plate reflects total phosphorylation activity of the enzyme in the absence of any inhibiting compound and thus represents 100%. Column 12 reflects any nonspecific phosphorylation/retained radioactivity activity in the absence of inhibiting compound and enzyme. Typically one observes approximately 1% of Total CPMs that are “nonspecific”. • 3.

T1 sequence (P49674 whole entry): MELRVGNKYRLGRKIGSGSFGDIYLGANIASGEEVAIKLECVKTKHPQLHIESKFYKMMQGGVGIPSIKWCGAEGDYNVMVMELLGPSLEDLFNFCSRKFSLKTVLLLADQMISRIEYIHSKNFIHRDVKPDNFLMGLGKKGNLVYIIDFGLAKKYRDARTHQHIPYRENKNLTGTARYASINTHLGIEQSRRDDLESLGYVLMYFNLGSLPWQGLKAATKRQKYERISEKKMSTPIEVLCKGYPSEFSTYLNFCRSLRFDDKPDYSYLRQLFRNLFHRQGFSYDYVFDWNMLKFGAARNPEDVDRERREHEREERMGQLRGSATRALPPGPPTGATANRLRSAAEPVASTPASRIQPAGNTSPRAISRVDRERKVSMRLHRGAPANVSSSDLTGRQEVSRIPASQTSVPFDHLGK

Structure (SMILES) | Ki [nM]
NCc1ccc2c(Sc3ccccc3)c(C(N)=O)[nH]c2c1 [IIa, 6-Aminomethyl-3-phenylsulfanyl-1H-indole-2-carboxylic acid amide] | 97
COc1ccccc1CNCc1ccc2c(Sc3ccccc3)c(C(N)=O)[nH]c2c1 [IIac, 6-[(2-Methoxybenzylamino)methyl]-3-phenylsulfanyl-1H-indole-2-carboxylic acid amide] | 240
NC(=O)c1[nH]c2cc(CNC(=O)C(N)CC(=O)O)ccc2c1Sc1ccccc1 (stereo not drawn) [IIae, 3-Amino-N-(2-carbamoyl-3-phenylsulfanyl-1H-indol-6-ylmethyl)succinamic acid] | 780
NC(=O)c1[nH]c2cc(CNCc3c4ccccc4c(Cl)c4ccccc34)ccc2c1Sc1ccccc1 [IIaf, 6-{[(10-Chloro-anthracen-9-ylmethyl)amino]methyl}-3-phenylsulfanyl-1H-indole-2-carboxylic acid amide] | 4830
NC(=O)c1[nH]c2cc(CN(C/C=C/c3ccco3)C/C=C/c3ccco3)ccc2c1Sc1ccccc1 [IIag] | 6920
COc1cc(CNCc2ccc3c(Sc4ccccc4)c(C(N)=O)[nH]c3c2)cc(Br)c1OC [IIai, 6-[(3-Bromo-4,5-dimethoxybenzylamino)methyl]-3-phenylsulfanyl-1H-indole-2-carboxylic acid amide] | 600
COc1cc(CNCc2ccc3c(Sc4ccccc4)c(C(N)=O)[nH]c3c2)ccc1OCc1ccccc1 [IIaj, 6-[(4-Benzyloxy-3-methoxybenzylamino)methyl]-3-phenylsulfanyl-1H-indole-2-carboxylic acid amide] | 2100
COc1ccc(CNCc2ccc3c(Sc4ccccc4)c(C(N)=O)[nH]c3c2)cc1OCc1ccccc1 [IIak, 6-[(3-Benzyloxy-4-methoxybenzylamino)methyl]-3-phenylsulfanyl-1H-indole-2-carboxylic acid amide] | 640
NC(=O)c1[nH]c2cc(CNCc3ccc([N+](=O)[O-])s3)ccc2c1Sc1ccccc1 [IIal, 6-{[(5-Nitrothiophen-2-ylmethyl)amino]methyl}-3-phenylsulfanyl-1H-indole-2-carboxylic acid amide] | 1210
NC(=O)c1[nH]c2cc(CNCC=C(c3ccccc3)c3ccccc3)ccc2c1Sc1ccccc1 [IIan] | > 10000
NC(=O)c1[nH]c2cc(CNCc3cccn3S(=O)(=O)c3ccccc3)ccc2c1Sc1ccccc1 [IIas, 6-{[(1-Benzenesulfonyl-1H-pyrrol-2-ylmethyl)amino]methyl}-3-phenylsulfanyl-1H-indole-2-carboxylic acid amide] | 6250
NC(=O)c1[nH]c2cc(CN(Cc3ccc([N+](=O)[O-])o3)Cc3ccc([N+](=O)[O-])o3)ccc2c1Sc1ccccc1 [IIat, 6-{[Bis-(5-nitrofuran-2-ylmethyl)amino]methyl}-3-phenylsulfanyl-1H-indole-2-carboxylic acid amide] | > 10000
NC(=O)c1[nH]c2cc(CNCc3ccc([N+](=O)[O-])o3)ccc2c1Sc1ccccc1 [IIau, 6-{[(5-Nitrofuran-2-ylmethyl)amino]methyl}-3-phenylsulfanyl-1H-indole-2-carboxylic acid amide] | 700
NC(=O)c1[nH]c2cc(CNCc3ccccc3)ccc2c1Sc1ccccc1 [IIc, 6-(Benzylaminonmethyl)-3-phenylsulfanyl-1H-indole-2-carboxylic acid amide] | 720
CN(C)c1ccc(CNCc2ccc3c(Sc4ccccc4)c(C(N)=O)[nH]c3c2)cc1 [IIe, 6-[(4-Dimethylaminobenzylamino)methyl]-3-phenylsulfanyl-1H-indole-2-carboxylic acid amide] | 730
Cc1ccc(CNCc2ccc3c(Sc4ccccc4)c(C(N)=O)[nH]c3c2)cc1 [IIf, 6-[(4-Methylbenzylamino)methyl]-3-phenylsulfanyl-1H-indole-2-carboxylic acid amide] | 810
NC(=O)c1[nH]c2cc(CNCc3ccc(Br)cc3)ccc2c1Sc1ccccc1 [IIh, 6-[(4-Bromobenzylamino)methyl]-3-phenylsulfanyl-1H-indole-2-carboxylic acid amide] | 740
NC(=O)c1[nH]c2cc(CNCc3ccc(Cl)cc3)ccc2c1Sc1ccccc1 [IIi, 6-[(4-Chlorobenzylamino)methyl]-3-phenylsulfanyl-1H-indole-2-carboxylic acid amide] | 390
NC(=O)c1[nH]c2cc(CNCc3cccc([N+](=O)[O-])c3)ccc2c1Sc1ccccc1 [IIk, 6-[(3-Nitrobenzylamino)methyl]-3-phenylsulfanyl-1H-indole-2-carboxylic acid amide] | 1190

Second part, the compound after the results:

Ki [nM] | Structure (SMILES)
460 | Cc1cccc(CNCc2ccc3c(Sc4ccccc4)c(C(N)=O)[nH]c3c2)c1 [IIaa, 6-[(3-Methylbenzylamino)methyl]-3-phenylsulfanyl-1H-indole-2-carboxylic acid amide]
4040 | NC(=O)c1[nH]c2cc(CNCc3cccc(C(F)(F)F)c3F)ccc2c1Sc1ccccc1 [IIab, 6-[(2-Fluoro-3-trifluoromethylbenzylamino)methyl]-3-phenylsulfanyl-1H-indole-2-carboxylic acid amide]
110 | NCCCC[C@H](N)C(=O)NCc1ccc2c(Sc3ccccc3)c(C(N)=O)[nH]c2c1 [IIad, 6-[(2,6-Diaminohexanoylamino)methyl]-3-phenylsulfanyl-1H-indole-2-carboxylic acid amide]
3500 | NC(=O)c1[nH]c2cc(CNCc3cc(Cl)cc(Cl)c3O)ccc2c1Sc1ccccc1 [IIah, 6-[(3,5-Dichloro-2-hydroxybenzylamino)methyl]-3-phenylsulfanyl-1H-indole-2-carboxylic acid amide]
2420 | COC(=O)c1ccc(CNCc2ccc3c(Sc4ccccc4)c(C(N)=O)[nH]c3c2)cc1 [IIam, 4-{[(2-Carbamoyl-3-phenylsulfanyl-1H-indol-6-ylmethyl)amino]methyl}benzoic acid methyl ester]
> 10000 | NC(=O)c1[nH]c2cc(CNCc3ccc(C=Cc4ccccc4)cc3)ccc2c1Sc1ccccc1 [IIao, 3-Phenylsulfanyl-6-[(4-styrylbenzylamino)methyl]-1H-indole-2-carboxylic acid amide]
> 10000 | NC(=O)c1[nH]c2cc(CNCc3c(F)cccc3C(F)(F)F)ccc2c1Sc1ccccc1 [IIap, 6-[(2-Fluoro-6-trifluoromethylbenzylamino)methyl]-3-phenylsulfanyl-1H-indole-2-carboxylic acid amide]
2540 | NC(=O)c1[nH]c2cc(CNCc3ccc(-c4ccccc4Cl)o3)ccc2c1Sc1ccccc1 [IIar, 6-({[5-(2-Chlorophenyl)-furan-2-ylmethyl]amino}methyl)-3-phenylsulfanyl-1H-indole-2-carboxylic acid amide]
470 | NC(=O)c1[nH]c2cc(CNCc3ccc([N+](=O)[O-])cc3)ccc2c1Sc1ccccc1 [IId, 6-[(4-Nitrobenzylamino)methyl]-3-phenylsulfanyl-1H-indole-2-carboxylic acid amide]
520 | COc1ccc(CNCc2ccc3c(Sc4ccccc4)c(C(N)=O)[nH]c3c2)cc1 [IIg, 6-[(4-Methoxybenzylamino)methyl]-3-phenylsulfanyl-1H-indole-2-carboxylic acid amide]
1390 | NC(=O)c1[nH]c2cc(CNCc3ccc(-c4ccccc4)cc3)ccc2c1Sc1ccccc1 [IIj, 6-{[(Biphenyl-4-ylmethyl)amino]methyl}-3-phenylsulfanyl-1H-indole-2-carboxylic acid amide]
